Experimental data taken from ChEMBL document CHEMBL3885881, “DrugMatrix”.

Species on record: Rattus norvegicus
Experiment: DrugMatrix - Regimen: Daily Repeat
Type: toxicity, organism-based, Sprague-Dawley
Design: regimen Daily Repeat, gender Male, age 6-8 weeks
Settings: in vivo, po, route oral GAVAGE, vehicle .5 % CMC; for ABSOLUTE BASOPHIL / ABSOLUTE EOSINOPHIL / ABSOLUTE LYMPHOCYTE / ABSOLUTE MONOCYTE / ABSOLUTE SEGMENTED NEUTROPHIL / BASOPHIL / EOSINOPHIL / ERYTHROCYTE COUNT / HEMATOCRIT / HEMOGLOBIN / LEUKOCYTE COUNT / LYMPHOCYTE / MEAN CORPUSCULAR HEMOGLOBIN / MEAN CORPUSCULAR HEMOGLOBIN CONCENTRATION / MEAN CORPUSCULAR VOLUME / MONOCYTE / NEUTROPHIL / NUCLEATED RED BLOOD CELLS / PLATELET COUNT: tissue Blood; for ALANINE AMINOTRANSFERASE / ALBUMIN / ALKALINE PHOSPHATASE / ASPARTATE AMINOTRANSFERASE / BLOOD UREA NITROGEN / CARBON DIOXIDE / CHLORIDE / CHOLESTEROL / CREATINE PHOSPHOKINASE / CREATININE / GLUCOSE / LACTATE DEHYDROGENASE / LIPASE / PHOSPHORUS / POTASSIUM / SODIUM / TOTAL BILIRUBIN / TOTAL PROTEIN / URIC ACID: tissue Plasma
[1] = 0 mg/kg, 72 h, dose level Control, time 3 day
[2] = 0 mg/kg, 120 h, dose level Control, time 5 day
[3] = 100 mg/kg, 72 h, dose level Low, time 3 day

In the case of O=C(O)CCc1nc(-c2ccccc2)c(-c2ccccc2)o1 [OXAPROZIN], the “ABSOLUTE BASOPHIL” value [1] is reported as 0 CELLS/uL, the “ABSOLUTE EOSINOPHIL” value [1] is reported as 0 CELLS/uL and the “ABSOLUTE LYMPHOCYTE” value [1] is reported as 12269.67 CELLS/uL. For the same molecule, the “ABSOLUTE MONOCYTE” value [1] was 160.33 CELLS/uL, the “ABSOLUTE SEGMENTED NEUTROPHIL” value [1] was 970 CELLS/uL and the BASOPHIL [1] was 0%. For the same molecule, the EOSINOPHIL [1] was 0%, the “ERYTHROCYTE COUNT” value [1] was 5.76 x10E6/uL and the HEMATOCRIT [1] was 36.57%. The HEMOGLOBIN [1] was 14.22 G/DL, the “LEUKOCYTE COUNT” value [1] was 13.4 x10E3/uL and the LYMPHOCYTE [1] was 91.67%. The “MEAN CORPUSCULAR HEMOGLOBIN” value [1] was 24.67 pg, the “MEAN CORPUSCULAR HEMOGLOBIN CONCENTRATION” value [1] was 38.85 G/DL and the “MEAN CORPUSCULAR VOLUME” value [1] was 63.52 fL. For the same molecule, the MONOCYTE [1] was 1.17%, the NEUTROPHIL [1] was 7.17% and the “NUCLEATED RED BLOOD CELLS” value [1] was 0.33 /100WBC. The “PLATELET COUNT” value [1] was 1250.83 x10E3/uL, the “ALANINE AMINOTRANSFERASE” value [1] was 49.17 u/L and the ALBUMIN [1] was 4.33 G/DL. For the same molecule, the “ALKALINE PHOSPHATASE” value [1] was 378.5 u/L, the “ASPARTATE AMINOTRANSFERASE” value [1] was 82.17 u/L and the “BLOOD UREA NITROGEN” value [1] was 15 mg/dL. The “CARBON DIOXIDE” value [1] was 34.33 mmol/L, the CHLORIDE [1] was 99.17 MEQ/L and the CHOLESTEROL [1] was 71.17 mg/dL. For the same molecule, the “CREATINE PHOSPHOKINASE” value [1] was 258.67 u/L, the CREATININE [1] was 0.18 mg/dL and the GLUCOSE [1] was 142.67 mg/dL. For the same molecule, the “LACTATE DEHYDROGENASE” value [1] was 154.33 u/L, the LIPASE [1] was 9 u/L and the PHOSPHORUS [1] was 11.67 mg/dL. The POTASSIUM [1] was 7.13 MEQ/L, the SODIUM [1] was 142.22 MEQ/L and the “TOTAL BILIRUBIN” value [1] was 0.18 mg/dL. The “TOTAL PROTEIN” value [1] was 5.77 G/DL, the “URIC ACID” value [1] was 1.55 mg/dL and the “ABSOLUTE BASOPHIL” value [2] was 0 CELLS/uL. For the same molecule, the “ABSOLUTE EOSINOPHIL” value [2] was 23.33 CELLS/uL, the “ABSOLUTE LYMPHOCYTE” value [2] was 14943.67 CELLS/uL and the “ABSOLUTE MONOCYTE” value [2] was 32 CELLS/uL. The “ABSOLUTE SEGMENTED NEUTROPHIL” value [2] was 1084.33 CELLS/uL, the BASOPHIL [2] was 0% and the EOSINOPHIL [2] was 0.17%. For the same molecule, the “ERYTHROCYTE COUNT” value [2] was 5.71 x10E6/uL, the HEMATOCRIT [2] was 35.28% and the HEMOGLOBIN [2] was 14.27 G/DL. The “LEUKOCYTE COUNT” value [2] was 16.08 x10E3/uL, the LYMPHOCYTE [2] was 93% and the “MEAN CORPUSCULAR HEMOGLOBIN” value [2] was 25.02 pg. The “MEAN CORPUSCULAR HEMOGLOBIN CONCENTRATION” value [2] was 40.43 G/DL, the “MEAN CORPUSCULAR VOLUME” value [2] was 61.82 fL and the MONOCYTE [2] was 0.17%. For the same molecule, the NEUTROPHIL [2] was 6.67%, the “NUCLEATED RED BLOOD CELLS” value [2] was 0.33 /100WBC and the “PLATELET COUNT” value [2] was 1274 x10E3/uL. The “ALANINE AMINOTRANSFERASE” value [2] was 54.17 u/L, the ALBUMIN [2] was 4.22 G/DL and the “ALKALINE PHOSPHATASE” value [2] was 373.17 u/L. The “ASPARTATE AMINOTRANSFERASE” value [2] was 81.83 u/L, the “BLOOD UREA NITROGEN” value [2] was 16.67 mg/dL and the “CARBON DIOXIDE” value [2] was 30.33 mmol/L. The CHLORIDE [2] was 99 MEQ/L, the CHOLESTEROL [2] was 71 mg/dL and the “CREATINE PHOSPHOKINASE” value [2] was 273.5 u/L. For the same molecule, the CREATININE [2] was 0.22 mg/dL, the GLUCOSE [2] was 141.83 mg/dL and the “LACTATE DEHYDROGENASE” value [2] was 153.67 u/L. It also gave an LIPASE [2] of 10.33 u/L, a PHOSPHORUS [2] of 11.38 mg/dL and a POTASSIUM [2] of 7.08 MEQ/L. The SODIUM [2] was 142.75 MEQ/L, the “TOTAL BILIRUBIN” value [2] was 0.18 mg/dL and the “TOTAL PROTEIN” value [2] was 6.1 G/DL. The “URIC ACID” value [2] was 1.67 mg/dL, the “ABSOLUTE BASOPHIL” value [3] was 0 CELLS/uL and the “ABSOLUTE EOSINOPHIL” value [3] was 43.67 CELLS/uL. The “ABSOLUTE LYMPHOCYTE” value [3] was 14019 CELLS/uL, the “ABSOLUTE MONOCYTE” value [3] was 367 CELLS/uL and the “ABSOLUTE SEGMENTED NEUTROPHIL” value [3] was 1137 CELLS/uL. The BASOPHIL [3] was 0%, the EOSINOPHIL [3] was 0.33% and the “ERYTHROCYTE COUNT” value [3] was 5.52 x10E6/uL. For the same molecule, the HEMATOCRIT [3] was 36.5%, the HEMOGLOBIN [3] was 14.27 G/DL and the “LEUKOCYTE COUNT” value [3] was 15.57 x10E3/uL. For the same molecule, the LYMPHOCYTE [3] was 89.67%, the “MEAN CORPUSCULAR HEMOGLOBIN” value [3] was 25.87 pg and the “MEAN CORPUSCULAR HEMOGLOBIN CONCENTRATION” value [3] was 39.17 G/DL. The “MEAN CORPUSCULAR VOLUME” value [3] was 66.13 fL, the MONOCYTE [3] was 2.33% and the NEUTROPHIL [3] was 7.67%. For the same molecule, the “NUCLEATED RED BLOOD CELLS” value [3] was 0.67 /100WBC, the “PLATELET COUNT” value [3] was 1268.67 x10E3/uL and the “ALANINE AMINOTRANSFERASE” value [3] was 66 u/L. For the same molecule, the ALBUMIN [3] was 4.57 G/DL, the “ALKALINE PHOSPHATASE” value [3] was 374.67 u/L and the “ASPARTATE AMINOTRANSFERASE” value [3] was 95 u/L. For the same molecule, the “BLOOD UREA NITROGEN” value [3] was 16.67 mg/dL, the “CARBON DIOXIDE” value [3] was 29.67 mmol/L and the CHLORIDE [3] was 99.67 MEQ/L. For the same molecule, the CHOLESTEROL [3] was 67 mg/dL, the “CREATINE PHOSPHOKINASE” value [3] was 308 u/L and the CREATININE [3] was 0.25 mg/dL. For the same molecule, the GLUCOSE [3] was 141.33 mg/dL, the “LACTATE DEHYDROGENASE” value [3] was 432 u/L and the LIPASE [3] was 8.67 u/L. For the same molecule, the PHOSPHORUS [3] was 11.9 mg/dL, the POTASSIUM [3] was 6.67 MEQ/L and the SODIUM [3] was 145.33 MEQ/L. The “TOTAL BILIRUBIN” value [3] was 0.33 mg/dL, the “TOTAL PROTEIN” value [3] was 6.13 G/DL and the “URIC ACID” value [3] was 2.03 mg/dL.
